Measured values taken from patent US9822414B2, “In vitro method for predicting in vivo genotoxicity of chemical compounds” (priority 2011, dated 2017).
Values joined by “and” are separate entries in the source; they are usually repeats but may differ in a detail not shown here. Equal entries are not always repeated. Where two headings read alike, the source gives them in different places.

Key:
SLC40A1 = assay: Gene expression of SLC40A1 in HepG2 cells exposed to compound (microarray, log2 treatment:control ratio); format: cell-based, human; conditions: HepG2 cells; for SLC40A1: expression versus reference value, single measurement of three; for Log2 treatment: control ratio SLC40A1: 24 h exposure, Ames negative compounds, one line per replicate of triplicate experiments
C10orf65/HOGA1 = assay: Gene expression of C10orf65/HOGA1 in HepG2 cells exposed to compound (microarray, log2 treatment:control ratio); format: cell-based, human; conditions: for C10orf65/HOGA1: expression versus reference value, single measurement of three; for Log2 treatment: control ratio C10orf65/HOGA1: 24 h exposure, Ames negative compounds, one line per replicate of triplicate experiments
Salmonella typhimurium = conditions: cited from earlier work
rodents = conditions: cited from earlier work
[1] = system: conventional in vitro genotoxicity assays; conditions: cited from earlier work
PNMA6A = assay: Gene expression of PNMA6A in HepG2 cells exposed to compound (microarray, log2 treatment:control ratio); format: cell-based, human; conditions: HepG2 cells; for Log2 treatment: control ratio PNMA6A: 24 h exposure, Ames negative compounds, one line per replicate of triplicate experiments; for PNMA6A: expression versus reference value, single measurement of three

Compound: CC(=O)Nc1ccc(O)cc1 [APAP]
- SLC40A1 (SLC40A1): − (below the reference value)
- C10orf65/HOGA1 (C10orf65/HOGA1): − (below the reference value)
- Ames (Salmonella typhimurium; Ames results based on NTP data): −
- In vivo GTX (rodents; in vivo): +
- Standard (rodents; in vivo): GTX
- In vitro GTX [1]: +

Compound: ClC(Cl)Br [BDCM]
- Log2 treatment: control ratio SLC40A1 (SLC40A1): −0.891 and −0.178 and −0.017
- SLC40A1 (SLC40A1): − (below the reference value)
- Log2 treatment: control ratio PNMA6A (PNMA6A): 0.22 and −0.289 and −0.185
- PNMA6A (PNMA6A): − (below the reference value)
- Log2 treatment: control ratio C10orf65/HOGA1 (C10orf65/HOGA1): 0.113 and 0.258 and 0.086
- At least ⅔ genes +? (HepG2 cell): NGTX
- Average result over three measurements (HepG2 cell): NGTX
- Prediction (class prediction results using the method of the invention) (HepG2 cell): NGTX
- Ames (Salmonella typhimurium): −
- In vivo GTX (rodents; in vivo): −
- Standard (rodents; in vivo): NGTX
- In vitro GTX [1]: +

Compound: c1ccc2c(c1)cc1ccc3cccc4ccc2c1c34 [BaP]
- In vivo GTX (rodents; in vivo): +
- In vitro GTX [1]: +

Compound: O=C1CCCCCN1 [CAP]
- Log2 treatment: control ratio SLC40A1 (SLC40A1): −0.607 and −0.032 and 0.265
- SLC40A1 (SLC40A1): − (below the reference value)
- Log2 treatment: control ratio PNMA6A (PNMA6A): 0.312 and −0.168 and −0.165
- Log2 treatment: control ratio C10orf65/HOGA1 (C10orf65/HOGA1): 0.203 and 0.223 and 0.138
- Average result over three measurements (HepG2 cell): NGTX
- Prediction (class prediction results using the method of the invention) (HepG2 cell): NGTX+
- Ames (Salmonella typhimurium; Ames results based on NTP data): −
- In vivo GTX (rodents; in vivo): −
- Standard (rodents; in vivo): NGTX
- In vitro GTX [1]: −

Compound: ClC(Cl)(Cl)Cl [CCI4]
- SLC40A1 (SLC40A1): − (below the reference value)
- Standard (rodents; standard in vivo genotoxicity designation): NGTX

Compound: ClC(Cl)(Cl)Cl [CCl4]
- Log2 treatment: control ratio SLC40A1 (SLC40A1): −0.888 and −0.041 and −0.185
- Log2 treatment: control ratio PNMA6A (PNMA6A): 0.412 and −0.425 and −0.14
- Log2 treatment: control ratio C10orf65/HOGA1 (C10orf65/HOGA1): 0.361 and 0.073 and −0.083
- Prediction (class prediction results using the method of the invention) (HepG2 cell): NGTX+
- Ames (Salmonella typhimurium): −
- In vivo GTX (rodents; in vivo): −
- In vitro GTX [1]: +

Compound: O=c1ccc2ccccc2o1 [Cou]
- Log2 treatment: control ratio SLC40A1 (SLC40A1): −0.215 and −0.309
- Log2 treatment: control ratio SLC40A1 (SLC40A1; listed as COU): −0.104
- SLC40A1 (SLC40A1): − (below the reference value)
- Log2 treatment: control ratio PNMA6A (PNMA6A): 0.073 and 0.081
- Log2 treatment: control ratio PNMA6A (PNMA6A; listed as COU): 0.14
- PNMA6A (PNMA6A): − (below the reference value)
- Log2 treatment: control ratio C10orf65/HOGA1 (C10orf65/HOGA1): −0.481 and −0.483
- Log2 treatment: control ratio C10orf65/HOGA1 (C10orf65/HOGA1; listed as COU): −0.069
- C10orf65/HOGA1 (C10orf65/HOGA1): − (below the reference value)
- At least ⅔ genes +? (HepG2 cell): NGTX
- Average result over three measurements (HepG2 cell): NGTX
- Prediction (class prediction results using the method of the invention) (HepG2 cell): NGTX
- Ames (Salmonella typhimurium; Ames results based on NTP data): −
- In vivo GTX (rodents; in vivo): −
- Standard (rodents; in vivo): NGTX
- In vitro GTX [1]: −

Compound: COc1cc(/C=C/C(=O)CC(=O)/C=C/c2ccc(O)c(OC)c2)ccc1O [Cur]
- Log2 treatment: control ratio SLC40A1 (SLC40A1): 0.174 and 0.252 and 0.253
- SLC40A1 (SLC40A1): − (below the reference value)
- Log2 treatment: control ratio PNMA6A (PNMA6A): −0.138 and −0.135 and 0.263
- Log2 treatment: control ratio C10orf65/HOGA1 (C10orf65/HOGA1): 0.113 and 0.028 and −0.293
- C10orf65/HOGA1 (C10orf65/HOGA1): − (below the reference value)
- At least ⅔ genes +? (HepG2 cell): NGTX
- Average result over three measurements (HepG2 cell): NGTX
- Prediction (class prediction results using the method of the invention) (HepG2 cell): NGTX
- Ames (Salmonella typhimurium; Ames results based on NTP data): −
- In vivo GTX (rodents; in vivo): −
- Standard (rodents; in vivo): NGTX
- In vitro GTX [1]: +

Compound: CCCCC(CC)COC(=O)c1ccccc1C(=O)OCC(CC)CCCC (stereo not drawn) [DEHP]
- Log2 treatment: control ratio SLC40A1 (SLC40A1; listed as DEPH): 0.249 and −0.387 and 0.234
- SLC40A1 (SLC40A1): − (below the reference value)
- Log2 treatment: control ratio PNMA6A (PNMA6A; listed as DEPH): −0.264 and −0.841 and −0.034
- PNMA6A (PNMA6A): − (below the reference value)
- C10orf65/HOGA1 (C10orf65/HOGA1): − (below the reference value)
- At least ⅔ genes +? (HepG2 cell): NGTX
- Average result over three measurements (HepG2 cell): NGTX
- Prediction (class prediction results using the method of the invention) (HepG2 cell): NGTX
- Ames (Salmonella typhimurium): −
- Standard (rodents; in vivo): NGTX
- In vitro GTX [1]: −

Compound: CC/C(=C(/CC)c1ccc(O)cc1)c1ccc(O)cc1 [DES]
- Log2 treatment: control ratio SLC40A1 (SLC40A1): 1.504 and 0.717 and 0.723
- SLC40A1 (SLC40A1): + (above the reference value)
- Log2 treatment: control ratio PNMA6A (PNMA6A): 0.286 and 0.203 and 0.135
- Log2 treatment: control ratio C10orf65/HOGA1 (C10orf65/HOGA1): 0.146 and 0.516 and 0.206
- C10orf65/HOGA1 (C10orf65/HOGA1): + (above the reference value)
- At least ⅔ genes +? (HepG2 cell): GTX
- Average result over three measurements (HepG2 cell): GTX
- Prediction (class prediction results using the method of the invention) (HepG2 cell): GTX
- Ames (Salmonella typhimurium; Ames results based on NTP data): −
- In vivo GTX (rodents; in vivo): +
- Standard (rodents; in vivo): GTX
- In vitro GTX [1]: +

Compound: CN(C)N=O [DMN]
- Average result over three measurements (HepG2 cell): GTX
- Prediction (class prediction results using the method of the invention) (HepG2 cell): GTX+
- Ames (Salmonella typhimurium): +
- In vivo GTX (rodents; in vivo): +
- Standard (in vivo genotoxicity designation) (rodents; in vivo): GTX
- In vitro GTX [1]: +

Compound: O=C(O)Cc1ccccc1Nc1c(Cl)cccc1Cl [Diclo]
- SLC40A1 (SLC40A1): − (below the reference value)
- C10orf65/HOGA1 (C10orf65/HOGA1): − (below the reference value)
- Standard (rodents; in vivo): NGTX
